Experimental findings from US20040082635A1, “Fused cyclic compounds and medicinal use thereof” (priority 2001, published 2004) are described below.

Where a name gives a salt, the structure may show the parent alone.

In the assay the target is T1, HCV polymerase (Hepatitis C virus genotype 1b, UniProt P26663).
T1 construct: a region encoding NS5B (591 amino acids; J Virol 1991 Mar, 65(3), 1105-13) was amplified by PCR; 6 His (N); made in house; host or cells: Escherichia coli
Put plainly: biochemical. The conditions noted are these: read-out: HCV polymerase inhibitory activity IC50.

T1 sequence (P26663 2420-3010): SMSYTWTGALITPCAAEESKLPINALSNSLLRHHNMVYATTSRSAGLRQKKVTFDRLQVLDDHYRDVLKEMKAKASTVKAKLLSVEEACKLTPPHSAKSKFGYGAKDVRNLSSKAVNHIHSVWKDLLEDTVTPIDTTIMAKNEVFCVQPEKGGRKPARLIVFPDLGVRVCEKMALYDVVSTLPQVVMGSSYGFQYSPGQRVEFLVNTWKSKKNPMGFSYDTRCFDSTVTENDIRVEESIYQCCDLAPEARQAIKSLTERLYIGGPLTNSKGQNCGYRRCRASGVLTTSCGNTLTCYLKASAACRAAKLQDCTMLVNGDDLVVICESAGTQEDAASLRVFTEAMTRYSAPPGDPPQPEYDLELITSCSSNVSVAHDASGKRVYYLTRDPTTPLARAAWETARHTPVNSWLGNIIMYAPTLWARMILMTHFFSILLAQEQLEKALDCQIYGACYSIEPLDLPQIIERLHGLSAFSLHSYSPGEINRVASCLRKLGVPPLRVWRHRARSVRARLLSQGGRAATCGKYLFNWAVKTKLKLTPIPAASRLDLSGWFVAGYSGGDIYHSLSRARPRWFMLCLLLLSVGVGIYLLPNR

For orientation: IC50 means the point on the concentration scale where inhibition reaches its midpoint. Turning to `O=C(O)c1ccc2c(c1)nc(-c1ccc(OCc3cc(OCC(=O)N4CCC(O)CC4)ccc3-c3ccc(Cl)cc3)cc1)n2C1CCCCC1` [Example 343], the IC50 came out at 0.017 µM.
Take `CN(C)C(=O)c1ccc(-c2ccc(F)cc2)c(COc2ccc(-c3nc4cc(C(=O)O)ccc4n3C3CCCCC3)cc2)c1` [Example 360, 2-{4-[5-(dimethylcarbamoyl)-2-(4-fluorophenyl)benzyloxy]phenyl}-1-cyclohexylbenzimidazole-5-carboxylic acid hydrochloride]: the IC50 worked out at 0.014 µM.
The same measure for `O=C(O)c1ccc2c(c1)nc(-c1ccc(OCCc3ccccc3)cc1)n2C1CCCC1` [Example 71, 1-cyclopentyl-2-(4-phenethyloxyphenyl)benzimidazole-5-carboxylic acid]: 0.62 µM.
Regarding `O=C(O)c1ccc2c(c1)nc(-c1ccc(Oc3ccccc3-c3ccccc3)cc1)n2C1CCCCC1` [Example 153, 2-[4-(2-biphenylyloxy)phenyl]-1-cyclohexylbenzimidazole-5-carboxylic acid], the IC50 amounted to 0.19 µM.
For `O=C(O)c1ccc2c(c1)nc(-c1ccc(OCc3cc(C(=O)NC4CCCCC4)ccc3-c3ccc(Cl)cc3)cc1)n2C1CCCCC1` [Example 324, 2-{4-[2-(4-chlorophenyl)-5-(cyclohexylcarbamoyl)benzyloxy]-phenyl}-1-cyclohexylbenzimidazole-5-carboxylic acid hydrochloride] the value was 0.027 µM.
The same measure for `CC(C)(C)c1ccc(COc2ccc(-c3nc4cc(C(=O)O)ccc4n3C3CCCC3)cc2)cc1` [Example 43, 2-[4-(4-tert-butylbenzyloxy)phenyl]-1-cyclopentylbenzimidazole-5-carboxylic acid]: 0.58 µM.
Consider `O=C(O)c1ccc2c(c1)nc(-c1ccc(OCc3ccccc3)cc1)n2C1CCCC1` [Example 12, 2-(4-benzyloxyphenyl)-1-cyclopentylbenzimidazole-5-carboxylic acid], for which the IC50 was 0.6 µM.
For `O=C(O)c1ccc(C(Oc2ccc(-c3nc4cc(C(=O)O)ccc4n3C3CCCCC3)c(F)c2)c2ccc(F)cc2)cc1` (stereo not shown) [Example 327, 2-{4-[(4-fluorophenyl)(4-carboxyphenyl)methoxy]-2-fluorophenyl}-1-cyclohexylbenzimidazole-5-carboxylic acid] the value was 0.019 µM.
For `O=C(O)c1ccc2c(c1)nc(-c1ccc(OCc3ccc(Cl)cc3)cc1)n2C1CCCC1` [Example 45, 2-[4-(4-chlorobenzyloxy)phenyl]-1-cyclopentylbenzimidazole-5-carboxylic acid], the IC50 is 0.4 µM.
The same measure for `O=C(O)c1ccc2c(c1)nc(-c1ccc(Oc3cccc(OCc4cccnc4)c3)cc1)n2C1CCCCC1` [Example 178, 1-cyclohexyl-2-{4-[3-(3-pyridylmethoxy)phenoxy]phenyl}-benzimidazole-5-carboxylic acid]: 0.052 µM; for `CCOC(=O)c1ccc(-c2ccc(Cl)cc2)c(COc2ccc(-c3nc4cc(C(=O)O)ccc4n3C3CCCCC3)cc2)c1` [Example 229, 2-{4-[2-(4-chlorophenyl)-5-ethoxycarbonylbenzyloxy]phenyl}-1-cyclohexylbenzimidazole-5-carboxylic acid]: 0.022 µM.
`O=C(O)c1ccc2c(c1)nc(-c1ccc(OCc3cc([N+](=O)[O-])ccc3-c3ccc(Cl)cc3)cc1)n2C1CCCCC1` [Example 182, 2-{4-[2-(4-chlorophenyl)-5-nitrobenzyloxy]phenyl}-1-cyclohexylbenzimidazole-5-carboxylic acid]: the IC50 was 0.021 µM.
The same measure for `O=C(O)c1ccc2c(c1)nc(-c1ccc(OCc3cc(NC4=NCCO4)ccc3-c3ccc(Cl)cc3)cc1F)n2C1CCCCC1` [Example 425, 2-{4-[2-(4-chlorophenyl)-5-(2-oxazolin-2-ylamino)benzyloxy]-2-fluorophenyl}-1-cyclohexylbenzimidazole-5-carboxylic acid dihydrochloride]: 0.026 µM.
With `O=C(O)c1ccc2c(c1)nc(-c1ccc(OCc3ccc(-c4nnn[nH]4)cc3-c3ccc(Cl)cc3)cc1)n2C1CCCCC1` [Example 237, 2-{4-[2-(4-chlorophenyl)-4-(5-tetrazolyl)benzyloxy]phenyl}-1-cyclohexylbenzimidazole-5-carboxylic acid], the IC50 was determined as 0.015 µM.
As for `CC(C)NC(=O)c1cccc(-c2ccc(Cl)cc2)c1COc1ccc(-c2nc3cc(C(=O)O)ccc3n2C2CCCCC2)c(F)c1` [Example 448, 2-[4-{2-(4-chlorophenyl)-6-(isopropylaminocarbonyl)benzyloxy}-2-fluorophenyl]-1-cyclohexylbenzimidazole-5-carboxylic acid hydrochloride], the concentration for half-maximal inhibition (IC50) came out at 0.2 µM.
Consider `CCN(c1ccc(-c2ccc(Cl)cc2)c(COc2ccc(-c3nc4cc(C(=O)O)ccc4n3C3CCCCC3)c(F)c2)c1)S(C)(=O)=O` [Example 461, 2-[4-{2-(4-chlorophenyl)-5-[N-ethyl-N-(methylsulfonyl)amino]-benzyloxy}-2-fluorophenyl]-1-cyclohexylbenzimidazole-5-carboxylic acid hydrochloride], for which the IC50 was 0.021 µM.
In the case of `O=C(O)c1ccc2c(c1)nc(-c1ccc(OCc3cc(C(=O)N4CCCC4)ccc3-c3ccc(Cl)cc3)cc1)n2C1CCSCC1` [Example 417, 2-{4-[2-(4-chlorophenyl)-5-(pyrrolidin-1-ylcarbonyl)benzyloxy]phenyl}-1-(tetrahydrothiopyran-4-yl)benzimidazole-5-carboxylic acid hydrochloride], the IC50 is 0.029 µM.
Take `O=C(O)c1ccc2c(c1)nc(-c1ccc(OCc3cc(C(=O)Nc4ccccc4)ccc3-c3ccc(Cl)cc3)cc1)n2C1CCCCC1` [Example 332, 2-{4-[2-(4-chlorophenyl)-5-(phenylcarbamoyl)benzyloxy]phenyl}-1-cyclohexylbenzimidazole-5-carboxylic acid hydrochloride]: the IC50 worked out at 0.023 µM.
For the molecule `O=C(O)c1ccc2c(c1)nc(-c1ccc(OCc3cc(Cl)ccc3-c3ccc(CO)cc3)cc1)n2C1CCCCC1` [Example 294, 2-{4-[3-chloro-6-(4-hydroxymethylphenyl)benzyloxy]phenyl}-1-cyclohexylbenzimidazole-5-carboxylic acid], the IC50 came out at 0.032 µM.
The same measure for `O=C(O)c1ccc2c(c1)nc(-c1ccc(OCc3cc(-c4noc(=O)[nH]4)ccc3-c3ccc(Cl)cc3)cc1F)n2C1CCCCC1` [Example 374, 2-{4-[2-(4-chlorophenyl)-5-(2,5-dihydro-5-oxo-4H-1,2,4-oxadiazol-3-yl)benzyloxy]-2-fluorophenyl}-1-cyclohexylbenzimidazole-5-carboxylic acid hydrochloride]: 0.013 µM.
For `CC(C)NC(=O)c1ccc(-c2ccc(Cl)cc2)c(COc2ccc(-c3nc4cc(S(N)(=O)=O)ccc4n3C3CCCCC3)c(F)c2)c1` [Example 447, 3-{[4-(5-aminosulfonyl-1-cyclohexylbenzimidazol-2-yl)-3-fluorophenoxy]methyl}-4-(4-chlorophenyl)-N-isopropylbenzamide] the value was 0.12 µM; for `CCCN(C(C)=O)c1ccc(-c2ccc(Cl)cc2)c(COc2ccc(-c3nc4cc(C(=O)O)ccc4n3C3CCCCC3)c(F)c2)c1` [Example 460, 2-[4-{2-(4-chlorophenyl)-5-(N-acetyl-N-propylamino)benzyloxy}-2-fluorophenyl]-1-cyclohexylbenzimidazole-5-carboxylic acid hydrochloride], 0.017 µM.
The same measure for `COc1ccc(-c2cccc(Oc3ccc(-c4nc5cc(C(=O)O)ccc5n4C4CCCCC4)cc3)c2)cc1` [Example 216, 1-cyclohexyl-2-{4-[3-(4-methoxyphenyl)phenoxy]phenyl}-benzimidazole-5-carboxylic acid]: 0.084 µM; for `CC(=O)c1ccc(-c2ccc(Cl)cc2)c(COc2ccc(-c3nc4cc(C(=O)O)ccc4n3C3CCCCC3)cc2)c1` [Example 342, 2-{4-[5-acetyl-2-(4-chlorophenyl)benzyloxy]phenyl}-1-cyclohexylbenzimidazole-5-carboxylic acid hydrochloride]: 0.015 µM; for `CC(=O)N[C@@H](COc1ccc(-c2nc3cc(C(=O)O)ccc3n2C2CCCCC2)cc1)c1ccccc1` [Example 162, 2-{4-[(2R)-2-acetylamino-2-phenylethoxy]phenyl}-1-cyclohexylbenzimidazole-5-carboxylic acid]: 0.43 µM.
On to `CC(C)=CCOc1cccc(Oc2ccc(-c3nc4cc(C(=O)O)ccc4n3C3CCCCC3)cc2)c1` [Example 113, 1-cyclohexyl-2-{4-[3-(3-methyl-2-butenyloxy)phenoxy]phenyl}-benzimidazole-5-carboxylic acid], for which the IC50 was 0.071 µM.
As for `O=C(O)c1ccc2c(c1)nc(-c1ccc(OCc3ccccc3)cc1)n2C1CCCCCC1` [Example 122, 2-(4-benzyloxyphenyl)-1-cycloheptylbenzimidazole-5-carboxylic acid], the IC50 was determined as 0.51 µM.
The same measure for `O=C(O)c1ccc2c(c1)nc(-c1ccc(OC(c3ccc(F)cc3)c3cccc(C(=O)N4CCC(O)CC4)c3)cc1F)n2C1CCCCC1` (stereo not shown) [Example 443, 2-{4-[{3-(4-hydroxypiperidyl-1-ylcarbonyl)phenyl}(4-fluorophenyl)methoxy]-2-fluorophenyl}-1-cyclohexylbenzimidazole-5-carboxylic acid hydrochloride]: 0.03 µM; for `O=C(O)c1ccc2c(c1)nc(-c1ccc(OCc3ccccc3)nc1)n2C1CCCCC1` [Example 100, 2-(2-benzyloxy-5-pyridyl)-1-cyclohexylbenzimidazole-5-carboxylic acid]: 0.78 µM.
For `CC(C)(C)OC(=O)N1CCC(COc2ccccc2Oc2ccc(-c3nc4cc(C(=O)O)ccc4n3C3CCCCC3)cc2)CC1` [Example 155, 2-{4-[2-{(1-tert-butoxycarbonyl-4-piperidyl)methoxy}phenoxy]-phenyl}-1-cyclohexylbenzimidazole-5-carboxylic acid] the value was 0.53 µM; for `O=C(O)c1ccc2c(c1)nc(-c1ccc(OC(c3ccc(F)cc3)c3ccc(F)cc3)cc1)n2C1CCCCC1` [Example 134, 2-{4-[bis(4-fluorophenyl)methoxy]phenyl}-1-cyclohexylbenzimidazole-5-carboxylic acid], 0.071 µM.
